Test results published in patent US20220389379A1, “PRIMARY BREAST EPITHELIAL CELL CULTURE MEDIUM, CULTURE METHOD AND USE THEREOF” (PRECEDO PHARMACEUTICALS CO., LTD, priority 2019, published 2022).

These compounds were tested on breast tumor cells (HMFL-XN29) (assay: Drug sensitivity functional test, Cell Titer-Glo cell viability). Details: HMFL-XN29, triple-negative patient; 72 hours after administration.
Type: cell-based, human
Description: (§1) 1. Plating of primary breast tumor cells: the single cell suspension of breast tumor cells (HMFL-XN5, HMFL-XN7, HMFL-XN10, HMFL-XN12, and HMFL-XN29) obtained by the same method of the invention according to step (3) of Example 4, was inoculated at a density of 3000-5000 cells/well in a 384-well plate, and the cells were adhered overnight.
(1) The drug storage plates were prepared by gradient dilution method: 10 μL of the drug stock solutions to be tested (the concentration of the drug stock solution was determined based on 2 times of the maximum blood concentration Cmax of the drug in the human body) were respectively taken, and added to 0.5 mL EP tubes containing 20 μL of DMSO; 10 μL of solutions from the above EP tubes were pipetted into second 0.5 mL EP tubes loaded with 20 μL of DMSO, that is, diluting the drugs in a ratio of 1:3. […]
(§2) (3) Test of cell viability: 72 hours after administration, Cell Titer-Glo assay kit (manufactured by Promega) was used to detect the chemiluminescence value of the cultured cells after drug administration. […] The prepared Cell Titer-Glo detection solution was added to each well, and a microplate reader was used to detect the chemiluminescence value after mixing.
(§3) Graphs were made by using Graphpad Prism 7.0 software and the half-inhibition rate IC50 was calculated.
For CS(=O)(=O)CCNCc1ccc(-c2ccc3ncnc(Nc4ccc(OCc5cccc(F)c5)c(Cl)c4)c3c2)o1 [lapatinib], the “drug sensitivity compared with breast tumor cells from other patients” value was “less sensitive”.
CC/C(=C(\c1ccccc1)c1ccc(OCCN(C)C)cc1)c1ccccc1 [tamoxifen] was tested, and the “drug sensitivity compared with breast tumor cells from other patients” value was “less sensitive”.

Each compound was assayed on primary breast tumor epithelial cells isolated from breast cancer tissues (HMFL-XN1, HMFL-XN3, HMFL-XN4, HMFL-XN6, HMFL-XN8) (assay: Optimization of primary breast epithelial cell culture medium: cell count after culture with medium additives). Details: not given.
Type: cell-based, human
Design: key: +: compared with the basis medium, the medium added with the additive(s) can promote the proliferation of primary breast tumor epithelial cells isolated from at least three cases of breast cancer tissues; −: the medium added with the additive(s) has the effect of inhibiting proliferation of primary breast tumor epithelial cells isolated from at least two cases of breast cancer tissues; ○: the medium added with this additive(s) has no significant effect on the proliferation of primary breast tumor epithelial cells isolated from at least three cases of breast cancer tissues
Description: Matrigel (registered trademark) (manufactured by BD Biosciences) was diluted at 1:100 in serum-free DMEM/F12 medium to prepare an extracellular matrix dilution, which was added to a 48-well culture plate with 200 μl/well to completely cover the bottom of the wells of the culture plate. The resultant was let stand for 1 hour in a 37° C. incubator. After 1 hour, the extracellular matrix dilution was removed to provide a Matrigel-coated plate.
First, a basis medium was prepared. To a commercial DMEM/F-12 medium, GlutaMAX-I (manufactured by Thermo Fisher SCIENTIFIC) was added at the specified concentration (1:100 dilution), human insulin (manufactured by Sigma) was added at a final concentration of 10 μg/ml, ROCK kinase inhibitor Y27632 (manufactured by Sigma) was added at a final concentration of 10 μM, and penicillin-streptomycin (manufactured by Thermo Fisher SCIENTIFIC) was added at a 1:100 dilution ratio, which provides the basis medium.
Next, different types of additives (as shown in Table 1) were added to the basis medium to prepare breast epithelial cell culture mediums containing different supplementary components, and the mediums with different components were added at a volume of 500 μl/well to 48-well plates which were coated with extracellular matrix gel (Matrigel). Breast tumor cells (HMFL-XN1) isolated from breast cancer tissue in step (1) of this Example were inoculated in a Matrigel-coated 48-well culture plate at a cell density of 1×10^4 cells/well, and equal numbers of freshly isolated breast tumor cells (HMFL-XN1) were cultured under different medium formulations at 37° C., under 5% CO2 concentration and 20% oxygen concentration. The medium was renewed every 4 days after the start of the culture. After 10 days of culture, cell counts were performed. As an experiment control, the basis medium without any additives was used. Breast tumor cells isolated from the remaining four breast cancer tissue samples were cultured and counted in the same manner as above.
With Cholera toxin the Degree of cell was “○”.

Same assay, conditions: additive at the concentration given in Table 1 added to basis medium; cell count after 10 days of culture, compared with basis medium; five breast cancer samples
With “Hepatocyte growth factor: medium additive (Peprotech)” the Degree of cell was “+”.
For Oc1ccc(-c2nc(-c3ccncc3)c(-c3ccc(F)cc3)[nH]2)cc1 [SB202190, reference compound], the Degree of cell was “+”.
In the case of Cc1cccc(-c2nn(C(=S)Nc3ccccc3)cc2-c2ccnc3ccccc23)n1 [A8301, reference compound], the Degree of cell is reported as “+”.
For CC(=O)N[C@@H](CS)C(=O)O [N-Acetyl Cysteine, reference compound], the Degree of cell was “−”.
For Neuregulin 1, the Degree of cell was “+”.
“Basic fibroblast growth factor: medium additive (R&D)” was tested, and the Degree of cell was “+”.
In the case of Interleukin 6: medium additive (R&D), the Degree of cell is reported as “−”.
With NC(=O)c1cccnc1 [Nicotinamide, reference compound] the Degree of cell was “−”.
With “Insulin growth factor1: medium additive (Peprotech)” the Degree of cell was “+”.
“Human leukemia inhibitory factor: medium additive (Peprotech)” was tested, and the Degree of cell was “−”.
In the case of “Epidermal growth factor: epidermal growth factor (EGF), medium additive (NSDSECPLSHDGYCLHDGVCMYIEALDKYACNCVVGYIGERCQYRDLKWWELR; UniProt P01133 971-1023, looked up)”, the Degree of cell is reported as “+”.
N[C@@H](Cc1cc(I)c(Oc2ccc(O)c(I)c2)c(I)c1)C(=O)O [Triiodothyronine, reference compound] was tested, and the Degree of cell was “○”.
Cc1ccc2c(c1)C(=O)C1(O)CCN(c3ccccc3)C1=N2 (centres unmarked) [Blebbistatin, reference compound] was tested, and the Degree of cell was “−”.
For CCCCC[C@H](O)/C=C/[C@H]1[C@H](O)CC(=O)[C@@H]1C/C=C\CCCC(=O)O [Prostaglandin E2, reference compound], the Degree of cell was “−”.

Each compound was assayed on breast tumor cells (HMFL-XN12) (assay: Drug sensitivity functional test, Cell Titer-Glo cell viability). Details: Homo sapiens; HMFL-XN12, HER2-positive patient; 72 hours after administration; read-out: half-inhibitory amount (IC50).
Type: cell-based
Description: as §1
(§4) (1) The drug storage plates were prepared by gradient dilution method: 10 μL of the drug stock solutions to be tested (the concentration of the drug stock solution was determined based on 2 times of the maximum blood concentration Cmax of the drug in the human body) were respectively taken, and added to 0.5 mL EP tubes containing 20 μL of DMSO; 10 μL of solutions from the above EP tubes were pipetted into second 0.5 mL EP tubes loaded with 20 μL of DMSO, that is, diluting the drugs in a ratio of 1:3. The above method was repeated for gradually dilution and 7 concentrations required for dosing were obtained. Different concentrations of drugs were added to the 384-well drug storage plates. Equal volume of DMSO was added to each well of the solvent control group as a control. In this example, the drugs to be tested were epirubicin (manufactured by MCE), lapatinib (manufactured by MCE), docetaxel (manufactured by MCE), and tamoxifen (manufactured by MCE).
(§5) (2) Using a high-throughput automated workstation (purchased from Perkin Elmer), different concentrations of drugs and solvent controls in the 384-well drug storage plates were added to 384-well cell culture plates plated with the breast tumor cells. […]
as §2, §3
CS(=O)(=O)CCNCc1ccc(-c2ccc3ncnc(Nc4ccc(OCc5cccc(F)c5)c(Cl)c4)c3c2)o1 [lapatinib] showed an IC50 of 920 nM.

The compounds below were run on breast tumor cells (HMFL-XN7) in the same assay as above. Details: Homo sapiens; HMFL-XN7, hormone receptor-positive, HER2 receptor-negative patient; 72 hours after administration; read-out: half-inhibition rate IC50.
Type: cell-based
Description: as §1, §4, §5, §2, §3
CS(=O)(=O)CCNCc1ccc(-c2ccc3ncnc(Nc4ccc(OCc5cccc(F)c5)c(Cl)c4)c3c2)o1 [lapatinib] gave an IC50 of 2500 nM.
For CC/C(=C(\c1ccccc1)c1ccc(OCCN(C)C)cc1)c1ccccc1 [tamoxifen], the IC50 was 980 nM.
